Biological target: T1, SOCS2 Cys111 (Homo sapiens, UniProt O14508)
T1 construct: MN551 covalently modifies cellular SOCS2 specifically at Cys111; endogenous in cells; host or cells: K562
T1 sequence (O14508 1-198): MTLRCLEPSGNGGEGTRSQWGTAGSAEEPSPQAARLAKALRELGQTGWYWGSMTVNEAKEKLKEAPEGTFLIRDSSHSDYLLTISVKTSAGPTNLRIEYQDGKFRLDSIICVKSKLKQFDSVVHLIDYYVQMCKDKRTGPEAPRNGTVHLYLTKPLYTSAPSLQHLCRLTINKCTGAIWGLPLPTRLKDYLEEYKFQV
Test: SOCS2 immunoprecipitation and tandem MS (LC-MS/MS) of Cys111 peptide from treated K562 cells
Type: cell-based
Conditions: 6 h
Description: While CETSA and GHR pulldown experiments allow ascertaining the engagement of cellular SOCS2, distinguishing reversible binding from covalent binding remains a challenge. […] Moreover, the MS2 spectra for cells treated with 1 μM and 10 μM MN714 show a dose-dependent increase in levels of SOCS2 modification (Fig. 6e).
Cells were treated with either DMSO, 1 μM, or 10 μM MN714 for 6 h in 10 cm dish. Cells were harvested, washed with PBS, and lysed in […] RIPA buffer (Sigma-R0278: 150 mM NaCl, 1.0% IGEPAL® CA-630, 0.5% sodium deoxycholate, 0.1% SDS, 50 mM Tris, pH 8.0, and freshly added protease inhibitor tablet). Cellular debris was pelleted, the lysate supernatant was aspirated to a new tube and subjected to immunoprecipitation at 4 °C for 4 h with 3 μl anti-SOCS2 antibody coupled to 20 μl of protein A/G beads (abcam- ab109245). The beads were washed 3 times with 1× RIPA buffer and precipitated protein samples were eluted with 1 × NuPAGE™ LDS sample buffer, and 20% of the sample was analyzed by SDS-PAGE and western blot using a rabbit anti-SOCS2 primary antibody (abcam) and IRDye® 800CW donkey anti-rabbit IgG secondary antibody. The remaining precipitated protein samples were processed for mass-spec analysis. In brief, the samples were reduced with DTT alkylated with Iodoacetamide and subjected to the SP3 protein clean-up procedure. […]
LC-MS analysis was performed by the FingerPrints Proteomics Facility (University of Dundee). Analysis of peptide readout was performed on a Q-Exactive™ plus, Mass Spectrometer (Thermo Scientific) coupled to a Dionex Ultimate 3000 RS (Thermo Scientific). […]
MS raw data were analyzed using MaxQuant software, standard settings were used with the following changes and additions: The modified FASTA databases with individual substitutions of cysteines with the placeholder “U” (selenocysteine) were used[67]. […] The relative intensity of peptide […] without and with a modified cysteine (placeholder “U”) were analyzed by normalizing to total intensity of SOCS2 protein.

Which “relative intensity of modified peptide LDSIIUVK, normalised to total SOCS2 levels” value (1uM) does the source give for `CC(C)(C)C(=O)OCOP(=O)(OCOC(=O)C(C)(C)C)Oc1ccc(C[C@H](NC(=O)Cc2ccc(F)cc2)C(=O)NCc2cccc(NC(=O)CCl)c2)cc1` [MN714] here?
Its value is 24.9386.

And the “relative intensity of unmodified peptide LDSIICVK, normalised to total SOCS2 levels” value (1uM)?
The value was 85.6581.

What about the “relative intensity of unmodified peptide LDSIICVK, normalised to total SOCS2 levels” value (10uM) of the same compound?
The value was 0.

From article PMC10564737, “Structure-based design of a phosphotyrosine-masked covalent ligand targeting the E3 ligase SOCS2” (Nature Communications, 2023)
